Assay [1] addresses T1, S1P1 (Homo sapiens, UniProt P21453). The assay is described as follows: Receptor binding assay, [33P]sphingosine 1-phosphate competition, membranes of CHO cells expressing S1P1. The procedure, abridged: (§1)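 SPA competition on CHO membranes with [33P]S1P at 30 pM (S1P1) or 15 pM (S1P3), in 50 mM HEPES pH 7.5, 5 mM MgCl2, 100 mM NaCl, 0.4% fatty acid-free BSA, 60 min at RT. Non-specific binding defined by 1000-fold unlabeled S1P; Ki values reported.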
Target sequence in this assay (P21453 whole entry, species assumed): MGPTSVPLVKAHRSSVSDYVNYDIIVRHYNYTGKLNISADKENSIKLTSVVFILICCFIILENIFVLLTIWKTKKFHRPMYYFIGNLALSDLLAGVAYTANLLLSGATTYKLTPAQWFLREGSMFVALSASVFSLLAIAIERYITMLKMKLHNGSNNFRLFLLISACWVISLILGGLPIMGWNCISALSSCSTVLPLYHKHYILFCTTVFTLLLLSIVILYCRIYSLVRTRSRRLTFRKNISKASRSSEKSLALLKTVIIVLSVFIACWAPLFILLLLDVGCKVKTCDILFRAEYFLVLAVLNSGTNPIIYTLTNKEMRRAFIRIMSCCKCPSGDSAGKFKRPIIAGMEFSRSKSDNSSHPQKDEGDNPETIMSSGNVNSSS

The target of a further assay is S1P3 (Homo sapiens, UniProt Q99500). The assay is described as follows: Receptor binding assay, [33P]sphingosine 1-phosphate competition, membranes of CHO cells expressing S1P3. The procedure, abridged: as §1
Assay [2] has as its target T1, S1P1. The assay is described as follows: S1P1 internalization assay in S1P1-U2OS cells (cell imaging). The format is cell-based. More on the design: host or cells: U2OS (human bone osteosarcoma epithelial cells). Conditions: U2OS cells expressing S1P1-EGFP, 384-well format. An outline of the steps:
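U2OS cells stably expressing human S1P1-EGFP, serum-starved 2 h in medium with 0.1% fatty-acid-free BSA, then compound 1 h at 37° C. After fixation and Hoechst nuclear stain, receptor internalization imaged as EGFP spot count per nucleus.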
Target sequence in this assay (P21453 whole entry): as the sequence (P21453 whole entry, species assumed) above

Setting [3] is: 384 well plate, read-out: S1P1 Binding Ki [M] (384 well plate).
The mark [4] stands for this setting: 384 well plate, read-out: S1P3 Binding Ki [M] (384 well plate).

The values that follow come from patent US9029405B2, “5-(biphenyl-4-yl)-3-phenyl-1,2,4-oxadiazolyl derivatives as ligands on the sphingosine 1-phosphate(SIP)receptors” (Merck Serono S.A., priority 2010, dated 2015).

Where a name gives a salt, the structure may show the parent alone. Read-outs that look alike come from different tables or passages of the source.

Chain of S1P3 (Q99500 whole entry, species assumed): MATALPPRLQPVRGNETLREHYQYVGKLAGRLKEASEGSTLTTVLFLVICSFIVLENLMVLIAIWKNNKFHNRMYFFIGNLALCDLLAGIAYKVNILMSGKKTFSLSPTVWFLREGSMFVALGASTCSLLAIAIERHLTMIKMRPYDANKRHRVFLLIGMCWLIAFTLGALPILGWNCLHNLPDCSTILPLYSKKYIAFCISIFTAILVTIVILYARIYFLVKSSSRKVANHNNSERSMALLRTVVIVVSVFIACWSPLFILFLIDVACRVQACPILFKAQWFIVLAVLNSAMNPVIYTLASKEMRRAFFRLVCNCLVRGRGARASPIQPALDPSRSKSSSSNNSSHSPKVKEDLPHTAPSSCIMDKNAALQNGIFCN

As usually defined, the Ki is a measure of affinity in units of concentration, obtained from inhibition or displacement. One may read the EC50 as the concentration that produces a half-maximal response. In the case of `Cc1ccccc1-c1ccc(-c2nc(-c3ccc(CN(C)[C@@H](CO)C(=O)O)c(F)c3)no2)cc1C(F)(F)F` [Example 45, N-(2-fluoro-4-{5-[2′-methyl-2-(trifluoromethyl)biphenyl-4-yl]-1,2,4-oxadiazol-3-yl}benzyl)-N-methylserine, hydrochloride salt], the results for the Ki on S1P1 [1] (setting [3]) and on S1P3 (setting [4]) were 2.68e-09 M and 4.36e-07 M, respectively. In addition, on S1P1 [2], a half-maximal effect (EC50) was put at 30.8 nM.

Take `Cc1ccccc1-c1ccc(-c2nc(-c3ccc(CN(C)[C@@H](C)C(=O)O)c(F)c3)no2)cc1C(F)(F)F` [Example 50, N-(2-fluoro-4-{5-[2′-methyl-2-(trifluoromethyl)biphenyl-4-yl]-1,2,4-oxadiazol-3-yl}benzyl)-N-methylalanine, hydrochloride salt]: the results for the Ki on S1P1 [1] (setting [3]) and on S1P3 (setting [4]) were 3.02e-09 M and 6.61e-07 M, respectively. The same molecule displayed an EC50 on S1P1 [2] of 25.8 nM.

On to `Cc1ccccc1-c1ccc(-c2nc(-c3ccc(CN[C@@H](CCO)C(=O)O)cc3)no2)cc1C(F)(F)F` [Example 60], for which the Ki came out at 3.46e-09 M on S1P1 [1] (setting [3]) and 1.03e-06 M at S1P3 (setting [4]). Also, a half-maximal response on S1P1 [2] (EC50) required 24.2 nM.

As to `Cc1ccccc1-c1ccc(-c2nc(-c3ccc([C@@H](C)N[C@H](C)C(=O)O)cc3)no2)cc1C(F)(F)F` [Example 20, N-[(1R)-1-(4-{5-[2′-methyl-2-(trifluoromethyl)biphenyl-4-yl]-1,2,4-oxadiazol-3-yl}phenyl)ethyl]-D-alanine, hydrochloride salt], the Ki at S1P1 [1] (96 well plate, read-out: S1P1 Binding Ki [M] (96 well plate)) amounted to 8.67e-10 M; on S1P1 [1] (setting [3]) it was 1.63e-09 M; on S1P3 (96 well plate, read-out: S1P3 Binding Ki [M] (96 well plate)) it was 6.83e-06 M; on S1P3 (setting [4]) it was 2.27e-06 M. Further, it took 7.57 nM to reach a half-maximal effect at S1P1 [2] (EC50).

With `Cc1ccccc1-c1ccc(-c2nc(-c3ccc(C(C)N(C)CC(=O)O)cc3)no2)cc1C(F)(F)F` (centres unmarked) [Example 40, N-methyl-N-[1-(4-{5-[2′-methyl-2-(trifluoromethyl)biphenyl-4-yl]-1,2,4-oxadiazol-3-yl}phenyl)ethyl]glycine, hydrochloride salt], the inhibitory constant (Ki) was 2.17e-09 M at S1P1 [1] (setting [3]) and 5.32e-07 M at S1P3 (setting [4]). For the same molecule, the response at S1P1 [2] was half-maximal at 17.8 nM (EC50).

Consider `COCc1cc(-c2nc(-c3ccc([C@H](C)NCC(=O)O)cc3)no2)ccc1-c1ccccc1C` [Example 5, N-[(1S)-1-(4-{5-[2-(methoxymethyl)-2′-methylbiphenyl-4-yl]-1,2,4-oxadiazol-3-yl}phenyl)ethyl]glycine, hydrochloride salt], for which the values for the Ki at S1P1 [1] (setting [3]) and on S1P3 (setting [4]) were 1.27e-09 M and 1.23e-06 M, respectively. Further, it took 4.33 nM to reach a half-maximal effect on S1P1 [2] (EC50).

Regarding `Cc1ccccc1-c1ccc(-c2nc(-c3ccc(CN[C@H](C(=O)O)C(C)C)cc3)no2)cc1C(F)(F)F` [Example 55], the results for the Ki on S1P1 [1] (setting [3]) and on S1P3 (setting [4]) were 2.2e-09 M and 8.02e-07 M, respectively. The half-maximal effective concentration (EC50) on S1P1 [2] was found to be 16.8 nM.

Take `Cc1ccccc1-c1ccc(-c2nc(-c3ccc(CNC(C)(C)C(=O)O)cc3)no2)cc1C(F)(F)F` [Example 57]: the results for the Ki at S1P1 [1] (setting [3]) and at S1P3 (setting [4]) were 5.69e-09 M and above 2e-05 M, respectively. On S1P1 [2], this molecule registered an EC50 of 19.9 nM.

For `Cc1ccccc1-c1ccc(-c2nc(-c3ccc(CN(C)C4(C(=O)O)CCCC4)cc3)no2)cc1C(F)(F)F` [Example 73], the figures for the inhibitory constant (Ki) on S1P1 [1] (setting [3]) and at S1P3 (setting [4]) were 2.27e-09 M and 5.42e-06 M, respectively. This molecule displayed an EC50 on S1P1 [2] of 29.8 nM.

For the molecule `Cc1ccccc1-c1ccc(-c2nc(-c3cccc(C(C)N(C)[C@@H](C)C(=O)O)c3)no2)cc1C(F)(F)F` (some centres unmarked) [Example 29, N-methyl-N-[1-(3-{5-[2′-methyl-2-(trifluoromethyl)biphenyl-4-yl]-1,2,4-oxadiazol-3-yl}phenyl)ethyl]alanine, hydrochloride salt], the inhibition constant Ki at S1P1 [1] (setting [3]) was 5.95e-10 M; on S1P3 (setting [4]), 5.84e-08 M. At S1P1 [2], the midpoint of the response, the EC50, lay at 46 nM.

On to `Cc1ccccc1-c1ccc(-c2nc(-c3ccc(CNC(C(=O)O)C(C)O)cc3)no2)cc1C(F)(F)F` (centres unmarked) [Example 64], for which the Ki is 6.78e-09 M on S1P1 [1] (setting [3]) and 1.99e-06 M at S1P3 (setting [4]). At S1P1 [2], this molecule displayed a half-maximal effective concentration (EC50) of 45.9 nM.
